Data from paper PMC5218480 (PLoS ONE, 2017).

Test system: MV-4-11 cells
Experiment: Gene expression microarray analysis (Affymetrix PrimeView) and GSEA
Assay type: cell-based, human
Set-up: RFU PODN (11730768_x_at) / Fold change /veh PODN (11730768_x_at) / RFU LINC00158 (11744669_a_at) / Fold change /veh LINC00158 (11744669_a_at) / RFU DUSP10 (11751237_a_at) / Fold change /veh DUSP10 (11751237_a_at) / RFU ID3 (11757404_x_at) / Fold change /veh ID3 (11757404_x_at) / RFU PLEKHG5 (11737974_s_at) / Fold change /veh PLEKHG5 (11737974_s_at) / RFU LRRC4B (11730491_at) / Fold change /veh LRRC4B (11730491_at) / RFU GIMAP4 (11747438_a_at) / Fold change /veh GIMAP4 (11747438_a_at) / RFU KRT8 (11758183_x_at) / Fold change /veh KRT8 (11758183_x_at) / RFU CNN1 (11734310_a_at) / Fold change /veh CNN1 (11734310_a_at) / RFU VPS37D (11726825_at) / Fold change /veh VPS37D (11726825_at) / RFU C10orf10 (11716522_x_at) / Fold change /veh C10orf10 (11716522_x_at) / RFU KIR2DL2 /// KIR2DL4 /// KIR2DL5A /// KIR2DL5B /// KIR2DS1 /// KIR2DS2 /// KIR2DS3 /// KIR2DS4 /// KIR3DL3 /// KIR3DL3 /// KIR3DS1 (11738374_at) / Fold change /veh KIR2DL2 /// KIR2DL4 /// KIR2DL5A /// KIR2DL5B /// KIR2DS1 /// KIR2DS2 /// KIR2DS3 /// KIR2DS4 /// KIR3DL3 /// KIR3DL3 /// KIR3DS1 (11738374_at) / RFU C1QL1 (11718748_at) / Fold change /veh C1QL1 (11718748_at) / RFU TMPRSS4 (11747572_a_at) / Fold change /veh TMPRSS4 (11747572_a_at) / RFU HAMP (11756126_x_at) / Fold change /veh HAMP (11756126_x_at) / RFU RNFT2 (11725882_a_at) / Fold change /veh RNFT2 (11725882_a_at) / RFU NR4A2 (11747474_a_at) / Fold change /veh NR4A2 (11747474_a_at) / RFU ABCC12 (11746883_a_at) / Fold change /veh ABCC12 (11746883_a_at) / RFU TMEM136 (11760407_x_at) / Fold change /veh TMEM136 (11760407_x_at) / RFU CLDN22 /// WWC2 (11732394_at) / Fold change /veh CLDN22 /// WWC2 (11732394_at) / RFU HLA-DPB1 (11760878_x_at) / Fold change /veh HLA-DPB1 (11760878_x_at) / RFU SPINT1 (11716480_a_at) / Fold change /veh SPINT1 (11716480_a_at) / RFU GAP43 (11754022_s_at) / Fold change /veh GAP43 (11754022_s_at) / RFU A4GNT (11735810_at) / Fold change /veh A4GNT (11735810_at) / RFU PRB3 (11715151_x_at) / Fold change /veh PRB3 (11715151_x_at) / RFU TUBB4B (11761932_at) / Fold change /veh TUBB4B (11761932_at) / RFU CAPN14 (11732068_a_at) / Fold change /veh CAPN14 (11732068_a_at) / RFU TMCC2 (11721928_a_at) / Fold change /veh TMCC2 (11721928_a_at) / RFU IRGQ (11745062_a_at) / Fold change /veh IRGQ (11745062_a_at) / RFU FAM174B (11720279_a_at) / Fold change /veh FAM174B (11720279_a_at) / RFU TMPRSS4 (11748680_a_at) / Fold change /veh TMPRSS4 (11748680_a_at) / RFU FAM212B (11763350_a_at) / Fold change /veh FAM212B (11763350_a_at) / RFU PLEKHG5 (11743358_a_at) / Fold change /veh PLEKHG5 (11743358_a_at) / RFU ZSCAN30 (11745921_a_at) / Fold change /veh ZSCAN30 (11745921_a_at) / RFU CMKLR1 (11741424_a_at) / Fold change /veh CMKLR1 (11741424_a_at) / RFU LOC101060620 /// MAPK8IP1 (11723275_at) / Fold change /veh LOC101060620 /// MAPK8IP1 (11723275_at) / RFU SPTSSB (11747773_x_at) / Fold change /veh SPTSSB (11747773_x_at) / RFU PRSS12 (11739890_at) / Fold change /veh PRSS12 (11739890_at) / RFU BIN1 (11741810_x_at) / Fold change /veh BIN1 (11741810_x_at) / RFU WNT11 (11732464_a_at) / Fold change /veh WNT11 (11732464_a_at) / RFU C10orf10 (11716521_a_at) / Fold change /veh C10orf10 (11716521_a_at) / RFU C5orf56 (11738089_at) / Fold change /veh C5orf56 (11738089_at) / RFU CYB561 (11721691_x_at) / Fold change /veh CYB561 (11721691_x_at) / RFU ANKRD19P (11752326_a_at) / Fold change /veh ANKRD19P (11752326_a_at) / RFU OR2T12 /// OR2T33 /// OR2T8 (11738714_s_at) / Fold change /veh OR2T12 /// OR2T33 /// OR2T8 (11738714_s_at) / RFU VCAN (11748164_a_at) / Fold change /veh VCAN (11748164_a_at) / RFU JSRP1 (11732532_at) / Fold change /veh JSRP1 (11732532_at) / RFU KRTAP10-11 (11738290_x_at) / Fold change /veh KRTAP10-11 (11738290_x_at) / RFU MYO3A (11730013_a_at) / Fold change /veh MYO3A (11730013_a_at) / RFU EBF3 (11725865_a_at) / Fold change /veh EBF3 (11725865_a_at) / RFU CAMK2N1 (11719241_x_at) / Fold change /veh CAMK2N1 (11719241_x_at) / RFU C5orf56 (11738088_a_at) / Fold change /veh C5orf56 (11738088_a_at) / RFU OLFML3 (11715873_a_at) / Fold change /veh OLFML3 (11715873_a_at) / RFU LOC100653217 /// NTM (11731650_a_at) / Fold change /veh LOC100653217 /// NTM (11731650_a_at) / RFU MAPK11 (11762145_a_at) / Fold change /veh MAPK11 (11762145_a_at) / RFU FIZ1 (11724087_x_at) / Fold change /veh FIZ1 (11724087_x_at) / RFU OASL (11726364_x_at) / Fold change /veh OASL (11726364_x_at) / RFU SOX15 (11748057_x_at) / Fold change /veh SOX15 (11748057_x_at) / RFU CD79A (11719716_a_at) / Fold change /veh CD79A (11719716_a_at) / RFU HIST1H1D (11736915_at) / Fold change /veh HIST1H1D (11736915_at) / RFU CASKIN2 (11723855_a_at) / Fold change /veh CASKIN2 (11723855_a_at) / RFU LOC730098 (11760151_x_at) / Fold change /veh LOC730098 (11760151_x_at) / RFU OR4N2 (11742367_at) / Fold change /veh OR4N2 (11742367_at) / RFU PRRT2 (11749266_a_at) / Fold change /veh PRRT2 (11749266_a_at) / RFU SNX32 (11753110_a_at) / Fold change /veh SNX32 (11753110_a_at) / RFU CDHR5 (11726645_a_at) / Fold change /veh CDHR5 (11726645_a_at) / RFU RCAN1 (11760418_a_at) / Fold change /veh RCAN1 (11760418_a_at) / RFU FAM167A (11723789_a_at) / Fold change /veh FAM167A (11723789_a_at) / RFU FAM26E (11764081_at) / Fold change /veh FAM26E (11764081_at) / RFU ISYNA1 (11749810_s_at) / Fold change /veh ISYNA1 (11749810_s_at) / RFU ACY1 (11761880_at) / Fold change /veh ACY1 (11761880_at) / RFU 11764098_at / Fold change /veh 11764098_at / RFU SAMD14 (11745864_x_at) / Fold change /veh SAMD14 (11745864_x_at) / RFU NPB (11741838_a_at) / Fold change /veh NPB (11741838_a_at) / RFU TMPRSS6 (11731388_a_at) / Fold change /veh TMPRSS6 (11731388_a_at) / RFU KRTAP10-2 (11738614_at) / Fold change /veh KRTAP10-2 (11738614_at) / RFU ARHGAP8 /// PRR5-ARHGAP8 (11727945_x_at) / Fold change /veh ARHGAP8 /// PRR5-ARHGAP8 (11727945_x_at) / RFU KRTAP5-7 /// NADSYN1 (11734609_at) / Fold change /veh KRTAP5-7 /// NADSYN1 (11734609_at) / RFU RASL12 (11751679_a_at) / Fold change /veh RASL12 (11751679_a_at) / RFU CDKN2B (11736163_a_at) / Fold change /veh CDKN2B (11736163_a_at) / RFU PRF1 (11729649_at) / Fold change /veh PRF1 (11729649_at) / RFU, ZNF638 /// ZNF638-IT1 / Fold change vs veh, ZNF638 /// ZNF638-IT1 / RFU, PANK3 / Fold change vs veh, PANK3 / RFU, SH3YL1 / Fold change vs veh, SH3YL1 / RFU, ZEB2 / Fold change vs veh, ZEB2 / RFU, NRIP1 / Fold change vs veh, NRIP1 / RFU, PTTG1IP / Fold change vs veh, PTTG1IP / RFU, CAPN2 / Fold change vs veh, CAPN2 / RFU, MED14 / Fold change vs veh, MED14 / RFU, SNORA58 / Fold change vs veh, SNORA58 / RFU, C1orf63 / Fold change vs veh, C1orf63 / RFU, LRRFIP1 / Fold change vs veh, LRRFIP1 / RFU, NDUFAF7 / Fold change vs veh, NDUFAF7 / RFU, SLC12A2 / Fold change vs veh, SLC12A2 / RFU, IBTK / Fold change vs veh, IBTK / RFU, ESF1 / Fold change vs veh, ESF1 / Fold change vs veh, TMEM50B / RFU, TAOK1 / Fold change vs veh, TAOK1 / RFU, ACBD3 / Fold change vs veh, ACBD3 / RFU, TMA16 / Fold change vs veh, TMA16 / RFU, RWDD3 / Fold change vs veh, RWDD3 / RFU, BCAT1 / Fold change vs veh, BCAT1 / RFU, EDEM3 / Fold change vs veh, EDEM3 / RFU, TMEM33 / Fold change vs veh, TMEM33 / RFU, WDR75 / Fold change vs veh, WDR75 / RFU, AHCTF1 / Fold change vs veh, AHCTF1 / RFU, TFRC / Fold change vs veh, TFRC / RFU, ZDHHC17 / Fold change vs veh, ZDHHC17 / RFU, NOM1 / Fold change vs veh, NOM1 / RFU, ARL8B / Fold change vs veh, ARL8B / RFU, ZBTB11 / Fold change vs veh, ZBTB11 / RFU, TAMM41 / Fold change vs veh, TAMM41 / RFU, KIAA1704 /// LOC100996395 / Fold change vs veh, KIAA1704 /// LOC100996395 / RFU, ING1 / Fold change vs veh, ING1 / RFU, TRMT61B / Fold change vs veh, TRMT61B / RFU, FUBP3 / Fold change vs veh, FUBP3 / RFU, TP53 / Fold change vs veh, TP53 / RFU, TNKS2 / Fold change vs veh, TNKS2 / RFU, ZFP14 / Fold change vs veh, ZFP14 / RFU, ACTR2 / Fold change vs veh, ACTR2 / RFU, PPP3R1 / Fold change vs veh, PPP3R1 / RFU, PIK3R1 / Fold change vs veh, PIK3R1 / RFU, HNRNPA1 / Fold change vs veh, HNRNPA1 / RFU, RNF170 / Fold change vs veh, RNF170 / RFU, ZNF28 / Fold change vs veh, ZNF28 / RFU, RNGTT / Fold change vs veh, RNGTT / RFU, OGT / Fold change vs veh, OGT / RFU, BRD1 / Fold change vs veh, BRD1 / RFU, MARS / Fold change vs veh, MARS / RFU, ZNF655 / Fold change vs veh, ZNF655 / RFU, FAHD1 / Fold change vs veh, FAHD1 / RFU, BDP1 / Fold change vs veh, BDP1 / RFU, LRRCC1 / Fold change vs veh, LRRCC1 / RFU, ARID1A / Fold change vs veh, ARID1A / RFU, ZNF146 / Fold change vs veh, ZNF146 / RFU, ZNF330 / Fold change vs veh, ZNF330 / RFU, GPN3 / Fold change vs veh, GPN3 / RFU, C9orf123 / Fold change vs veh, C9orf123 / RFU, N4BP2L2 / Fold change vs veh, N4BP2L2 / RFU, ARFIP1 / Fold change vs veh, ARFIP1 / RFU, FAM179B / Fold change vs veh, FAM179B / RFU, BCL10 / Fold change vs veh, BCL10 / RFU, UHRF1BP1L / Fold change vs veh, UHRF1BP1L / RFU, BET1 / Fold change vs veh, BET1 / RFU, CNOT2 / Fold change vs veh, CNOT2 / RFU, ZNF268 / Fold change vs veh, ZNF268 / Fold change vs veh, ZNF507 / RFU, DGCR2 / Fold change vs veh, DGCR2 / RFU, WDSUB1 / Fold change vs veh, WDSUB1 / Fold change vs veh, HSP90B1 /// MIR3652 / RFU, ADSS / Fold change vs veh, ADSS / RFU, GK / Fold change vs veh, GK / RFU, ZNF148 / Fold change vs veh, ZNF148 / RFU, TAF9 / Fold change vs veh, TAF9 / RFU, SLC1A5 / Fold change vs veh, SLC1A5 / RFU, SLMO2 / Fold change vs veh, SLMO2 / RFU, ABCC4 / Fold change vs veh, ABCC4 / RFU, LOC101060439 /// RAP1B / Fold change vs veh, LOC101060439 /// RAP1B / RFU, RFX7 / Fold change vs veh, RFX7 / RFU, GTPBP10 / Fold change vs veh, GTPBP10 / RFU, CNEP1R1 / Fold change vs veh, CNEP1R1 / RFU, BIVM-ERCC5 /// ERCC5 / Fold change vs veh, BIVM-ERCC5 /// ERCC5 / RFU, ILF3 / Fold change vs veh, ILF3 / RFU 11762660_at / Fold change /veh 11762660_at / RFU VCAN (11757783_s_at) / Fold change /veh VCAN (11757783_s_at) / RFU DDX43 (11728927_at) / Fold change /veh DDX43 (11728927_at) / RFU KRT8 (11758188_x_at) / Fold change /veh KRT8 (11758188_x_at) / RFU NKD1 (11759106_at) / Fold change /veh NKD1 (11759106_at) / RFU SRD5A1 (11742802_a_at) / Fold change /veh SRD5A1 (11742802_a_at) / RFU TPSAB1 /// TPSB2 (11721975_s_at) / Fold change /veh TPSAB1 /// TPSB2 (11721975_s_at) / RFU GSTM3 (11746129_a_at) / Fold change /veh GSTM3 (11746129_a_at) / RFU IL23R (11737362_x_at) / Fold change /veh IL23R (11737362_x_at) / RFU TMEM51 (11727254_a_at) / Fold change /veh TMEM51 (11727254_a_at) / RFU PIWIL2 (11732686_x_at) / Fold change /veh PIWIL2 (11732686_x_at) / RFU ORM1 (11744905_x_at) / Fold change /veh ORM1 (11744905_x_at) / RFU CCDC152 (11743942_at) / Fold change /veh CCDC152 (11743942_at) / RFU ECM1 (11717891_a_at) / Fold change /veh ECM1 (11717891_a_at) / RFU IL23R (11748794_a_at) / Fold change /veh IL23R (11748794_a_at) / RFU TNFAIP8L3 (11732012_x_at) / Fold change /veh TNFAIP8L3 (11732012_x_at) / RFU MBOAT4 (11741988_at) / Fold change /veh MBOAT4 (11741988_at) / RFU 11764193_at / Fold change /veh 11764193_at / RFU TMEM53 (11763286_at) / Fold change /veh TMEM53 (11763286_at) / RFU MAGEB2 (11727129_at) / Fold change /veh MAGEB2 (11727129_at) / RFU TMEM200A (11744735_a_at) / Fold change /veh TMEM200A (11744735_a_at) / RFU CCDC152 (11751479_a_at) / Fold change /veh CCDC152 (11751479_a_at) / RFU FAM211A (11726209_a_at) / Fold change /veh FAM211A (11726209_a_at) / RFU RGS16 (11746705_a_at) / Fold change /veh RGS16 (11746705_a_at) / RFU VCAN (11755009_s_at) / Fold change /veh VCAN (11755009_s_at) / RFU RHOB (11743442_s_at) / Fold change /veh RHOB (11743442_s_at) / RFU RGS16 (11720943_a_at) / Fold change /veh RGS16 (11720943_a_at) / RFU RGS16 (11720944_at) / Fold change /veh RGS16 (11720944_at) / RFU, VPS4B / Fold change vs veh, VPS4B / RFU, CREB1 / Fold change vs veh, CREB1 / RFU, DNAJC13 / Fold change vs veh, DNAJC13 / RFU, GNAQ / Fold change vs veh, GNAQ / RFU, CDK5R1 / Fold change vs veh, CDK5R1 / RFU, ZRANB3 / Fold change vs veh, ZRANB3 / RFU, CUL4A / Fold change vs veh, CUL4A / RFU, CCNY / Fold change vs veh, CCNY / RFU, UFL1 / Fold change vs veh, UFL1 / RFU, COG3 / Fold change vs veh, COG3 / RFU, DIAPH2 / Fold change vs veh, DIAPH2 / RFU, SKA2 / Fold change vs veh, SKA2 / RFU, AFF3 / Fold change vs veh, AFF3 / RFU, LMF1 / Fold change vs veh, LMF1 / RFU, IPO11 / Fold change vs veh, IPO11 / RFU, DFFB / Fold change vs veh, DFFB / RFU, FOXP1 / Fold change vs veh, FOXP1 / RFU, CARD8 / Fold change vs veh, CARD8 / RFU, STRN3 / Fold change vs veh, STRN3 / RFU, ADK / Fold change vs veh, ADK / RFU, RASSF2 / Fold change vs veh, RASSF2 / RFU, WIPF1 / Fold change vs veh, WIPF1 / RFU, LARP1B / Fold change vs veh, LARP1B / RFU, RASA1 / Fold change vs veh, RASA1 / RFU, RB1 / Fold change vs veh, RB1 / RFU, PPFIA1 / Fold change vs veh, PPFIA1 / RFU, MAT2A / Fold change vs veh, MAT2A / RFU, CCT5 / Fold change vs veh, CCT5 / RFU, WDR92 / Fold change vs veh, WDR92 / RFU, CUX1 / Fold change vs veh, CUX1 / RFU, TTC7A / Fold change vs veh, TTC7A / RFU, TMEM135 / Fold change vs veh, TMEM135 / RFU, DEPTOR / Fold change vs veh, DEPTOR / RFU, CPM / Fold change vs veh, CPM / RFU, DNAJB6 / Fold change vs veh, DNAJB6 / RFU, CACNA2D3 / Fold change vs veh, CACNA2D3 / RFU, DTX4 / Fold change vs veh, DTX4 / RFU, TFCP2 / Fold change vs veh, TFCP2 / RFU, GMCL1 /// GMCL1P1 / Fold change vs veh, GMCL1 /// GMCL1P1 / RFU, AEBP2 / Fold change vs veh, AEBP2 / RFU, SNHG1 /// SNORD22 /// SNORD25 /// SNORD26 /// SNORD27 /// SNORD28 /// SNORD29 /// SNORD31 / Fold change vs veh, SNHG1 /// SNORD22 /// SNORD25 /// SNORD26 /// SNORD27 /// SNORD28 /// SNORD29 /// SNORD31 / Fold change (Aza/veh), C12orf56 (ProbeSet 11735607_a_at) / Fold change (ACY-1035/veh), C12orf56 (ProbeSet 11735607_a_at) / Fold change (Aza/veh), FGFR1OP (ProbeSet 11751329_s_at) / Fold change (ACY-1035/veh), FGFR1OP (ProbeSet 11751329_s_at) / Fold change (Aza/veh), VPS36 (ProbeSet 11739960_a_at) / Fold change (ACY-1035/veh), VPS36 (ProbeSet 11739960_a_at) / RFU SYPL1 (11715823_x_at) / Fold change /veh SYPL1 (11715823_x_at) / RFU IGFBP7 (11715501_s_at) / Fold change /veh IGFBP7 (11715501_s_at) / RFU REEP3 (11722064_at) / Fold change /veh REEP3 (11722064_at) / RFU IGLL1 (11728026_x_at) / Fold change /veh IGLL1 (11728026_x_at): dose or concentration left out as unconfirmed
Conditions: MV-4-11 cells, 48 hours

## Nc1ncn([C@@H]2O[C@H](CO)[C@@H](O)[C@H]2O)c(=O)n1 [azacitidine]
  Fold change /veh BIN1 (11741810_x_at): 1.02
